{"source": "patent US9239329B2", "about": "(priority 2006, dated 2016)", "key": {"A/Fukuoka/C29/85(H3N2)": {"system": "A/Fukuoka/C29/85(H3N2)", "format": "binding, influenza virus", "conditions": "virus 100 HAU in PBS, 150 μl/min for 5 min, room temperature"}, "A/Guizhou/54/89(H3N2)": {"system": "A/Guizhou/54/89(H3N2)", "format": "binding, influenza virus", "conditions": "virus 100 HAU in PBS, 150 μl/min for 5 min, room temperature"}, "[1]": {"format": "binding", "conditions": "2.0 μM protein in PBS-T, 150 μl/min for 5 min, room temperature; FIG. 3"}}, "data": [{"substance": "Neu5Acα2-6Galβ1-4Glc", "values": [{"measurement": "interaction between sugar chain and influenza virus (SPR signal intensity)", "setting": "A/Fukuoka/C29/85(H3N2)", "result": "strong interaction"}, {"measurement": "interaction between sugar chain and influenza virus (SPR signal intensity)", "setting": "A/Guizhou/54/89(H3N2)", "result": "limited interaction"}]}, {"substance": "bovine serum albumin", "values": [{"measurement": "interaction of protein with immobilized sugar chains (increase in brightness at spot positions, SPR)", "setting": "[1]", "result": "increase in brightness at none of the spot positions"}]}, {"substance": "concanavalin A", "values": [{"measurement": "interaction of protein with immobilized sugar chains (increase in brightness at spot positions, SPR)", "setting": "[1]", "result": "interacted with the sugar chains immobilized at the spot positions"}]}, {"substance": "wheat germ agglutinin", "values": [{"measurement": "interaction of protein with immobilized sugar chains (increase in brightness at spot positions, SPR)", "setting": "[1]", "result": "interacted with the sugar chains immobilized at the spot positions"}]}]}
